# Laboratory results: patent publication US20110281808A1, “Composition and Method for Increasing Pre Workout Thermogenics” (ALLMAX NUTRITION INC., priority 2010, published 2011)
# Experiments:
# [1] = oral administration of 500 mg hordenine to horses; cited from earlier work
# [2] = after ingestion, horses; cited from earlier work
# central nervous system = conditions: cats under anaesthesia; cited from earlier work
# [3] = humans, from grapefruit juice; cited from earlier work
# [4] = oral administration of naringin with Yerba Mate, half life of caffeine and thermogenesis; type: in vivo; conditions: oral administration together with Yerba Mate (source of caffeine)
structure (smiles),measurement,setting,value
"CN(C)CCc1ccc(O)cc1 [hordenine, N,N-dimethyl-4-hydroxyphenylethylamine]",heart rate,[1],slight increase in heart rate
same,half-life,[2],24 min
same,muscle tone / spinal cord stimulation,central nervous system,increases muscle tone
O=C1C[C@@H](c2ccc(O)cc2)Oc2cc(O)cc(O)c21 [naringenin],bioavailability,[3],bioavailable from grapefruit juice
"C[C@@H]1O[C@@H](O[C@H]2[C@H](Oc3cc(O)c4c(c3)O[C@H](c3ccc(O)cc3)CC4=O)O[C@H](CO)[C@@H](O)[C@@H]2O)[C@H](O)[C@H](O)[C@H]1O [naringin, 4′, 5,7-tri-hydroxyflavonone 7-rhamno-glucoside]",effect on half life of caffeine and thermogenesis,[4],acts synergistically with Yerba Mate
